From patent publication US9808512B2, “Anti-cell proliferative compounds and methods of use” (KALOS Therapeutics, priority 2007, dated 2017)
Where “and” joins values, the source holds several entries; their conditions need not be identical. Equal entries are not always repeated. Entries after “also recorded” stand apart in the source; their conditions may differ.

Key:
[1] = system: Human Pancreatic Adenocarcinoma Cells (HPAC); assay: HPAC cell viability, Calbiochem Rapid Cell Proliferation Kit, optical density at 450 nm; assay type: cell-based; conditions: 48 hours; for Optical Densities in 96_Well Plate, Average: average of 5 replicate wells; for Optical Densities in 96_Well Plate: single replicate wells
Method: Human Pancreatic Adenocarcinoma Cells (HPAC) cells were obtained from ATCC and propagated in Dulbecco's modified Eagle's medium and Ham's F12 medium (DME-F12) (1:1) containing 2.5 mM glutamine, […], 5 ug/mL transferrin, 1 ng/mL EGF (epidermal growth factor), plus 5% FBS (fetal bovine serum). Cell cultures were incubated at 37° C., 5% CO2 in a 100% humidity atmosphere. The cells were routinely brought to confluence in T-flasks, rinsed with phosphate buffered saline (PBS), and treated with trypsin for 5 min at room temp. The trypsinized cells were rinsed from the plate with 10 mL medium and counted. Viability at subculturing was generally ≧95%.
Approximately 10,000 cells in 100 uL of medium were placed in each well of a 96-well plate and incubated over night. Peptides having the following sequences were used: Arg-15-Cys (RSSCAGAALSPLGAC; SEQ. ID NO:122); Pro-15-Val (PNEEAGAALSPLPEV; SEQ. ID NO:121); Ala-8-Leu (AGAALSPL; SEQ. ID NO:85); C-ANP 4-23 ([…]; SEQ. ID NO:124) and, VDL ([…]; SEQ. ID NO:125). The peptides were dissolved in PBS and sterile filtered. The peptides were diluted into the cell culture medium to the following final concentrations: 1, 0.3, 0.1, 0.03, and 0.01 uM. Each peptide was tested in 5 replicate wells. The cultures were incubated for an additional 48 hours at 37° C.
The viability of the cells was determined using a Calbiochem Rapid Cell Proliferation Kit (catalog number QIA127). Ten uL of Calbiochem color reagent was added to each well and incubated for an additional 1.5 hours at 37° C. Optical densities were read at 450 nm using a Molecular Devices ThermoMax microplate reader. The plate template is shown in Table I (unlabeled wells contained cells but no peptide and were used as blanks). Results are presented in Table I, and are graphically illustrated in FIGS. 1 and 2.

[2] = system: cancer cells; conditions: known natriuretic peptides; cited from earlier work
[3] = target: T1, NPRC (Homo sapiens, UniProt P17342); conditions: cited from earlier work
T1 sequence (P17342 27-541): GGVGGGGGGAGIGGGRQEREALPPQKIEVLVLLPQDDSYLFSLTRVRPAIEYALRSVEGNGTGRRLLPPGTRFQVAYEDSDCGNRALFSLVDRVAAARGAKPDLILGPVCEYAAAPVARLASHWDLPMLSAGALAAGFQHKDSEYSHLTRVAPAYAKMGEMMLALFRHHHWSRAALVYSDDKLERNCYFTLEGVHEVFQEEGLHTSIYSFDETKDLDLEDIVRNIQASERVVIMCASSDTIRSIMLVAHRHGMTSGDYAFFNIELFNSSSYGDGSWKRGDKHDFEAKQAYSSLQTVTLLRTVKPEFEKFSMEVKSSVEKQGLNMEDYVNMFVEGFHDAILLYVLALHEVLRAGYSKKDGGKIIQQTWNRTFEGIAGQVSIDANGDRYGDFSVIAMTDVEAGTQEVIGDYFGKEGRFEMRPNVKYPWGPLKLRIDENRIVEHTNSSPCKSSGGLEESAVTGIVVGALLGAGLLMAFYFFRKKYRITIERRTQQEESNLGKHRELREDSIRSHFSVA

[4] = target: T2, NPRA (Homo sapiens, UniProt P16066); conditions: cited from earlier work
T2 sequence (P16066 33-1061): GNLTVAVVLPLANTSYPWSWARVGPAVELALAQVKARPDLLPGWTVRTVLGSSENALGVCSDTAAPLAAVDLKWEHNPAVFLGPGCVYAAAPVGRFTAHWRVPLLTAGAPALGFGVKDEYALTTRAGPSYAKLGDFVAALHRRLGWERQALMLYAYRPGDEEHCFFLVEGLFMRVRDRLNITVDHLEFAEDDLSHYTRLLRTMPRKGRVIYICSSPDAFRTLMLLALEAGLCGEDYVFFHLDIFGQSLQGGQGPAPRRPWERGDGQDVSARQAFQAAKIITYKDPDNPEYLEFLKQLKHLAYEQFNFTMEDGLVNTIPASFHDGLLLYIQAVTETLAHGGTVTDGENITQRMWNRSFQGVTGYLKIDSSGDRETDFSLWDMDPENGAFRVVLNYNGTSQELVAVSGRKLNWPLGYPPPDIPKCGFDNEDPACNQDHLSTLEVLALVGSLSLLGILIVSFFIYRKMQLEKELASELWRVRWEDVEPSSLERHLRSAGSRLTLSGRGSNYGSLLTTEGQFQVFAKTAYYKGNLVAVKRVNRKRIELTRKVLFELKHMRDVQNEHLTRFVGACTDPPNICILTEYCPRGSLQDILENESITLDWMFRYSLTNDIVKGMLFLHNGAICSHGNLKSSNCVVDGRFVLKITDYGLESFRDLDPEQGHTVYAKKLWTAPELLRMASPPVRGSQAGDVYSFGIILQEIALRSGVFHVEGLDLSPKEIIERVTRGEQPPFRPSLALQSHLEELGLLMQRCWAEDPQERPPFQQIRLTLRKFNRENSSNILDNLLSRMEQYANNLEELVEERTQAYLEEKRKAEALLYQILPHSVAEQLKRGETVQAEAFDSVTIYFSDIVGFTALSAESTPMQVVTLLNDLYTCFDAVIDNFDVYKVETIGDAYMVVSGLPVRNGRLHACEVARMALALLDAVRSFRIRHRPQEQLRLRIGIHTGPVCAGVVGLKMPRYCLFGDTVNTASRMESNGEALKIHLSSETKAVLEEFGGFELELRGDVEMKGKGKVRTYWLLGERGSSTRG

| Substance | Optical Densities in 96_Well Plate, Average ([1]; peptide 0.01 μM) | Optical Densities in 96_Well Plate ([1]; peptide 0.01 μM) | Optical Densities in 96_Well Plate, Average ([1]; peptide 0.03 μM) | Optical Densities in 96_Well Plate ([1]; peptide 0.03 μM) | Optical Densities in 96_Well Plate, Average ([1]; peptide 0.1 μM) | Optical Densities in 96_Well Plate ([1]; peptide 0.1 μM) | Optical Densities in 96_Well Plate, Average ([1]; peptide 0.3 μM) | Optical Densities in 96_Well Plate ([1]; peptide 0.3 μM) | Optical Densities in 96_Well Plate, Average ([1]; peptide 1.0 μM) | Optical Densities in 96_Well Plate ([1]; peptide 1.0 μM) | anticancer activity / relative potency [2] | binding affinity at NPRC [3] | binding affinity at NPRA [4] |
| --- | --- | --- | --- | --- | --- | --- | --- | --- | --- | --- | --- | --- | --- |
| RSSCAGAALSPLGAC [Arg-15-Cys, ID NO:122] | 0.934 | 0.974 and 0.920 and 0.863 and 0.840 and 1.075 | 0.982 | 1.093 and 0.894 and 0.789 and 0.955 and 1.178 | 0.950 | 1.016 and 0.917 and 0.801 and 0.990 and 1.025 | 0.897 | 0.988 and 0.957 and 0.668 and 0.913 and 0.959 | 0.962 | 1.155 and 1.005 and 0.787 and 0.944 and 0.919 | – | – | – |
| AGAALSPL [Ala-8-Leu, ID NO:85] | 0.937 | 0.744 and 0.878 and 1.000 and 0.892 and 1.169 | 0.976 | 0.892 and 0.937 and 0.989 and 0.921 and 1.139 | 0.991 | 0.832 and 1.006 and 1.031 and 0.910 and 1.174 | 1.002 | 0.784 and 0.802 and 0.998 and 1.357 and 1.070 | 0.985 | 0.732 and 1.216 and 0.954 and 0.834 and 1.189 | – | – | – |
| ANP: Natriuretic peptide; Table III sequence SLRRSSCFGGRMDRIGAQSGLGCNSFRY, SEQ ID NO:126 [reference compound] | 0.908 | 0.981 and 0.815 and 0.822 and 0.965 and 0.955 | 0.935 | 0.948 and 0.882 and 0.911 and 0.951 and 0.982 | 0.838 | 0.884 and 0.889 and 0.907 and 0.862 and 0.650 | 0.974 | 1.001 and 0.889 and 0.837 and 0.934 and 1.209 | 0.914 | 1.018 and 0.819 and 0.954 and 0.829 and 0.951 | greater potency observed for ANP than CNP; also recorded: have anticancer activity | higher binding affinities | higher binding affinities |
| PNEEAGAALSPLPEV [Pro-15-Val, ID NO:121] | 0.916 | 0.907 and 0.905 and 0.633 and 1.209 and 0.928 | 0.894 | 0.892 and 0.765 and 0.693 and 1.151 and 0.970 | 0.918 | 0.680 and 0.895 and 0.893 and 1.156 and 0.964 | 0.916 | 0.875 and 0.817 and 0.855 and 1.024 and 1.010 | 0.948 | 0.856 and 0.752 and 0.802 and 1.083 and 1.248 | – | – | – |
| EVVPPQVLSEPNEEAGAALSPLPEVPPWTGEVSPAQR [KT-220 (VDL), ID NO:125] | – | – | – | – | – | – | – | – | – | – | have anticancer activity | – | – |
| RSSCFGGRIDRIGAC [C-ANP 4-23, ID NO:124, reference compound] | 0.938 | 0.877 and 0.971 and 0.953 and 0.932 and 0.958 | 0.932 | 0.905 and 0.882 and 0.981 and 0.948 and 0.943 | 0.942 | 0.758 and 1.027 and 0.983 and 0.960 and 0.982 | 0.942 | 0.840 and 0.928 and 1.035 and 0.975 and 0.932 | 0.925 | 0.865 and 0.925 and 0.900 and 0.955 and 0.981 | have anticancer activity | – | – |
